Values of other authors in US10674726B2, “Composition” (Conopco, Inc., priority 2013, dated 2020).

Conditions: at neutral pH

Structure (SMILES) | Critical Micelle Concentration [mg/L]
CCCCCCCC(CC(=O)O)OC(=O)CC(CCCCCCC)OC1OC(C)C(O)C(O)C1OC1OC(C)C(O)C(O)C1O (centres unmarked) [dirhamnolipid, 3-[3-[4,5-dihydroxy-6-methyl-3-(3,4,5-trihydroxy-6-methyloxan-2-yl)oxyoxan-2-yl]oxydecanoyloxy]decanoic acid] | 30
CCCCCCCC(CC(=O)O)OC(=O)CC(CCCCCCC)O[C@@H]1O[C@@H](C)[C@H](O)[C@@H](O)[C@H]1O (stereo partly drawn) [mono-rhamnolipid, 3-[3-[(2R,3R,4R,5R,6S)-3,4,5-trihydroxy-6-methyloxan-2-yl]oxydecanoyloxy]decanoic acid] | 20
